Source: US20090062150A1, “COMPOSITIONS AND METHODS FOR REGULATING INTRAMEMBRANE PROTEASES” (priority 2006, published 2009)

Legend:
[1] = target: T1, truncated GlpG transmembrane core domain (Escherichia coli, UniProt P09391); assay: In vitro protease activity assay of GlpG core domain; format: biochemical, E. coli; conditions: for inhibition of GlpG by other detergents: wide range of concentrations up to several times their CMCs, data not shown
T1 construct: The transmembrane core domain of GlpG (residues 87-276) was purified as described previously; made in house
T1 sequence (P09391 87-276): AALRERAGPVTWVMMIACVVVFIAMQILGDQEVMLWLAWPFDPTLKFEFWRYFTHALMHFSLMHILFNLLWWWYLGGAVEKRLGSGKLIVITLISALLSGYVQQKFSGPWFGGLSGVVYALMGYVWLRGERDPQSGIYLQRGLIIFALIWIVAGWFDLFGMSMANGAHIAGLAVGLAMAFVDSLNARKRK
Experimental: Structural characterization of E. coli rhomboid protease, GlpG, was carried out using an N-terminally truncated GlpG transmembrane core domain (residues 87-276). In vitro characterization of the enzymatic activity of the truncated GlpG was reconstituted to validate the use of the GlpG core domain for crystallographic studies was carried out using two separate assays. Proteolytic activity of purified truncated GlpG core domain on an artificial protein substrate in detergent micelles was analyzed at 37° C. […] Proteolytic activity of purified truncated GlpG core domain was also compared with full length GlpG using C100-Spitz-Flag as substrate.
Combinatorial library technology provides an efficient way of testing a potentially vast number of different substances for their ability to modulate the activity of a rhomboid protease. In some embodiments, test substances may be screened for their ability to interact with the rhomboid protease in an enzymatic assay. For example, in one such enzymatic assay an artificial protein substrate, such as, for example, a membrane: associated protein, such as, CED-4, or C100-Spitz-Flag may be contacted with a rhomboid protease, such as GlpG. Cleavage products may then be analyzed by, for example, sodium dodecyl-sulfate polyacrylamide gel electrophoresis (SDS-PAGE). A test substance may be added to such an enzymatic, assay as a separate component, and modulation of the enzymatic activity of the rhomboid protease may be apparent by a reduction or enhancement of the amount or type of cleavage product. The modulation of activity may be indicative of binding of the test substance to the rhomboid protease.
The proteolytic activity of GlpG was examined as described by Wu et al.

rhomboid protease = conditions: qualitative statement; cited from earlier work
[2] = target: T1, truncated GlpG transmembrane core domain; conditions: qualitative statement, no data shown; cited from earlier work

Row | Structure (SMILES) | inhibition of rhomboid activity (rhomboid protease) | specificity for rhomboid (rhomboid protease) | inhibition of GlpG by other detergents [1] | further results
1 | CCCCCCCCOCCOCCOCCOCCO [C8E4, tetraethyleneglycol monooctyl ether] |  |  |  | inhibition of enzymatic activity on artificial substrate ([1]; at concentrations above its critical micelle concentration (CMC), artificial substrate, FIG. 4A left panel): inhibit enzymatic activity; inhibition of proteolysis of C100-Spitz-Flag ([1]; substrate C100-Spitz-Flag, FIG. 4A right panel): inhibition is also observed
2 | O=c1oc(Cl)c(Cl)c2ccccc12 [DCI, Dichloroisocoumarin] | inhibit rhomboid activity | lack specificity |  | inhibition of GlpG [2]: relatively potent inhibition
3 | CCCCCCCCCCCC[N+](C)(C)[O-] [LDAO] |  |  | no inhibition | 
4 | Cc1ccc(S(=O)(=O)N[C@@H](Cc2ccccc2)C(=O)CCl)cc1 [TPCK] | inhibit rhomboid activity | lack specificity |  | 
5 | CCCCCCCCCO[C@@H]1O[C@H](CO)[C@@H](O)[C@H](O)[C@H]1O [nonyl glucoside] |  |  | no inhibition | 
